Experimental findings from ChEMBL document CHEMBL2331505, “Synthesis of quinoline derivatives: discovery of a potent and selective phosphodiesterase 5 inhibitor for the treatment of Alzheimer's disease” (Eur J Med Chem, 2013) are described below.

The target in assay [1] is cGMP-specific 3',5'-cyclic phosphodiesterase (Homo sapiens, UniProt O76074). The experiment in a line: Inhibition of PDE5 (unknown origin) using FAM-cGMP as substrate after 60 mins by fluorescence assay.
The next assay addresses Phosphodiesterase 3 (Homo sapiens, UniProt Q14432+Q13370). Put plainly: Inhibition of PDE3 (unknown origin) using FAM-cGMP and FAM-cAMP as substrate after 60 mins by fluorescence assay. In kind it is protein assay.
For the next assay, the target named is Phosphodiesterase 7 (Homo sapiens, UniProt Q13946+Q9NP56). The experiment in a line: Inhibition of PDE7 (unknown origin) using FAM-cAMP as substrate after 60 mins by fluorescence assay. Format: protein assay.
In another assay the target is Phosphodiesterase 1 (Homo sapiens, UniProt P54750+Q01064+Q14123). Put plainly: Inhibition of PDE1 (unknown origin) using FAM-cGMP and FAM-cAMP as substrate after 60 mins by fluorescence assay. Format: protein assay.
The target in assay [2] is High affinity cGMP-specific 3',5'-cyclic phosphodiesterase 9A (Homo sapiens, UniProt O76083). The experiment in a line: Inhibition of PDE9 (unknown origin) using FAM-cGMP as substrate after 60 mins by fluorescence assay.
Assay [3] concerns the target cAMP and cAMP-inhibited cGMP 3',5'-cyclic phosphodiesterase 10A (Homo sapiens, UniProt Q9Y233). Put plainly: Inhibition of PDE10 (unknown origin) using FAM-cGMP and FAM-cAMP as substrate after 60 mins by fluorescence assay.
A further assay addresses Phosphodiesterase 8 (Homo sapiens, UniProt O95263+O60658). Put plainly: Inhibition of PDE8 (unknown origin) using FAM-cAMP as substrate after 60 mins by fluorescence assay. In kind it is protein assay.
Assay [4] addresses cGMP-dependent 3',5'-cyclic phosphodiesterase (Homo sapiens, UniProt O00408). Put plainly: Inhibition of PDE2 (unknown origin) using FAM-cGMP and FAM-cAMP as substrate after 60 mins by fluorescence assay.
For assay [5], the species on record is Homo sapiens. The experiment in a line: Selectivity ratio of IC50 for PDE2 (unknown origin) to IC50 for PDE5 (unknown origin).
In the next assay the target is Phosphodiesterase 4 (Homo sapiens, UniProt P27815+Q08499+Q07343+Q08493). Put plainly: Inhibition of PDE4 (unknown origin) using FAM-cAMP as substrate after 60 mins by fluorescence assay. In kind it is protein assay.
Assay [6] is filed under the species Homo sapiens. Put plainly: Selectivity ratio of IC50 for PDE9 (unknown origin) to IC50 for PDE5 (unknown origin).
The target in another assay is Phosphodiesterase 6. The experiment in a line: Inhibition of PDE6 (unknown origin) using FAM-cGMP as substrate after 60 mins by fluorescence assay. Format: protein assay, Homo sapiens.
Assay [7] is filed under the species Homo sapiens. The experiment in a line: Selectivity ratio of IC50 for PDE11 (unknown origin) to IC50 for PDE5 (unknown origin).
For assay [8], the species on record is Homo sapiens. Put plainly: Selectivity ratio of IC50 for PDE3 (unknown origin) to IC50 for PDE5 (unknown origin).
For assay [9], the species on record is Homo sapiens. Put plainly: Selectivity ratio of IC50 for PDE10 (unknown origin) to IC50 for PDE5 (unknown origin).
The species entered for assay [10] is Homo sapiens. Put plainly: Selectivity ratio of IC50 for PDE7 (unknown origin) to IC50 for PDE5 (unknown origin).
The species named for assay [11] is Homo sapiens. The experiment in a line: Selectivity ratio of IC50 for PDE1 (unknown origin) to IC50 for PDE5 (unknown origin).
The species entered for assay [12] is Homo sapiens. Put plainly: Selectivity ratio of IC50 for PDE6 (unknown origin) to IC50 for PDE5 (unknown origin).
Assay [13] is filed under the species Homo sapiens. Put plainly: Selectivity ratio of IC50 for PDE8 (unknown origin) to IC50 for PDE5 (unknown origin).
Assay [14] addresses Dual 3',5'-cyclic-AMP and -GMP phosphodiesterase 11A (Homo sapiens, UniProt Q9HCR9). The experiment in a line: Inhibition of PDE11 (unknown origin) using FAM-cGMP and FAM-cAMP as substrate after 60 mins by fluorescence assay.
Assay [15] is filed under the species Homo sapiens. The experiment in a line: Selectivity ratio of IC50 for PDE4 (unknown origin) to IC50 for PDE5 (unknown origin).

One may read the IC50 as the concentration that inhibits the measured activity by half. Higher therefore signals weaker potency in that assay.

cAMP and cAMP-inhibited cGMP 3',5'-cyclic phosphodiesterase 10A, sequence (Q9Y233 whole entry): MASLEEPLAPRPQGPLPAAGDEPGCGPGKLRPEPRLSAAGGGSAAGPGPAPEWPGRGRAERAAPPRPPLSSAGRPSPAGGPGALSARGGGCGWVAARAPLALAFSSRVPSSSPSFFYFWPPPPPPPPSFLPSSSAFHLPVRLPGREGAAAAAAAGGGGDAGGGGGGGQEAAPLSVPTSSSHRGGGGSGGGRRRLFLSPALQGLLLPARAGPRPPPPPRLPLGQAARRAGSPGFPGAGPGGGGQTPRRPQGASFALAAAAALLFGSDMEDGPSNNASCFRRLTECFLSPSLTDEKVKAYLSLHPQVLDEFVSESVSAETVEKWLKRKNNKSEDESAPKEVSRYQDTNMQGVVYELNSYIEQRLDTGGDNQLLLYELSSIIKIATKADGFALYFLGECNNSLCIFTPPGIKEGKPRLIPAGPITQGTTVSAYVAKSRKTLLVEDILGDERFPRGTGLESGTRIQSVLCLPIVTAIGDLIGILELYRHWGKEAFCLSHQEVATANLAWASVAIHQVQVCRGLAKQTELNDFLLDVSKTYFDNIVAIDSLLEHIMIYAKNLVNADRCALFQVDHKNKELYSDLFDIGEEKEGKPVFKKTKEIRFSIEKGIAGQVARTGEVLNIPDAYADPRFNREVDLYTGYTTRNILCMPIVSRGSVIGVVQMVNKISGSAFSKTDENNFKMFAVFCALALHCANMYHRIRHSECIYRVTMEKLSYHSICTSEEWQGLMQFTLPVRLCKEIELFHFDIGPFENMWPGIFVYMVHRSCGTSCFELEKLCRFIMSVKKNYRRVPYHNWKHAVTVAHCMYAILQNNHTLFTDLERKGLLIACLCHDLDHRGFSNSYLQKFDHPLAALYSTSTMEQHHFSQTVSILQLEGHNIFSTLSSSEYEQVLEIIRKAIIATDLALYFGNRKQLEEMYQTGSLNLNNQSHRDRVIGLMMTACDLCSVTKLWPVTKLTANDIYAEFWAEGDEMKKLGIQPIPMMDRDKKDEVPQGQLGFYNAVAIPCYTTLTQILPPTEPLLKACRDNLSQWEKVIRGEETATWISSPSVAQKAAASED
cGMP-dependent 3',5'-cyclic phosphodiesterase, sequence (O00408 whole entry): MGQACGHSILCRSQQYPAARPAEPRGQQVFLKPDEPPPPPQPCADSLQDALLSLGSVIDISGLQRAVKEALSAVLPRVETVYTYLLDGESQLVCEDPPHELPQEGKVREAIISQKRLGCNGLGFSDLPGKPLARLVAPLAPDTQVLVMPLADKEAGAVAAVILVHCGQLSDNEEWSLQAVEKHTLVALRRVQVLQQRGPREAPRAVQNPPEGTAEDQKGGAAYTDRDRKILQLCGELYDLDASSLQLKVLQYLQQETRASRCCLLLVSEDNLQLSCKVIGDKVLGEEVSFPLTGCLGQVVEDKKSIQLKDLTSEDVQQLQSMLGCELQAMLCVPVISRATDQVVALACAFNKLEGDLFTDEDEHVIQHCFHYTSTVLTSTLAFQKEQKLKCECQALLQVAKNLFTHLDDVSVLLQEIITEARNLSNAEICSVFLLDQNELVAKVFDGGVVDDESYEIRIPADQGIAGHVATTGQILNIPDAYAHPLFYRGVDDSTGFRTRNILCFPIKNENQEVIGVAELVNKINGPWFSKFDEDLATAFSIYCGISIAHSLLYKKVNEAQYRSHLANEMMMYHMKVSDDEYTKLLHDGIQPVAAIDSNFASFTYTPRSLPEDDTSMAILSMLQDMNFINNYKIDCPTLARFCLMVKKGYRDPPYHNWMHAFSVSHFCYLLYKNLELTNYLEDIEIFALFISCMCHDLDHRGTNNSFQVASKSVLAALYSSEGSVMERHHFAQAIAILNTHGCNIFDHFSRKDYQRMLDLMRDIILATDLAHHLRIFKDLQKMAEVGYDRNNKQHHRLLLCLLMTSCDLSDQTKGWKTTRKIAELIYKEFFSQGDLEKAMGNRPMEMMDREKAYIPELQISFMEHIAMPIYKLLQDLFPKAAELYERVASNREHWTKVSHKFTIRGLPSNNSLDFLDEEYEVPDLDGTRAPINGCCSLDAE
High affinity cGMP-specific 3',5'-cyclic phosphodiesterase 9A, sequence (O76083 whole entry): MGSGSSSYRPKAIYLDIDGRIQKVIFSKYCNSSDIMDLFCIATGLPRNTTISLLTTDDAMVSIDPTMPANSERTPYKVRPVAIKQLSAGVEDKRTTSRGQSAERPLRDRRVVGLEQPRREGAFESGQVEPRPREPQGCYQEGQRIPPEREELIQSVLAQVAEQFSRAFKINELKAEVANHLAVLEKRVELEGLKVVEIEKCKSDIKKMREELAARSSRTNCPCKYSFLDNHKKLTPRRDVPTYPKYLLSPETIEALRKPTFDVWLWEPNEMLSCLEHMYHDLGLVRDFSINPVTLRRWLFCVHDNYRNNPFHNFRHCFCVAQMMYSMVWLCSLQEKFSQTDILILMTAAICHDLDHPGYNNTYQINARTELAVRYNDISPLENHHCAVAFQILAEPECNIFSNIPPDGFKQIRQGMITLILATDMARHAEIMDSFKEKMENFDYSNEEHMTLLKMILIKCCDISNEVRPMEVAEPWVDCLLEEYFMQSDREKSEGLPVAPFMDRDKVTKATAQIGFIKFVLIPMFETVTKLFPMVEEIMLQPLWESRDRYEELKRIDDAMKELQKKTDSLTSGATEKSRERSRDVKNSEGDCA
Dual 3',5'-cyclic-AMP and -GMP phosphodiesterase 11A, sequence (Q9HCR9 whole entry): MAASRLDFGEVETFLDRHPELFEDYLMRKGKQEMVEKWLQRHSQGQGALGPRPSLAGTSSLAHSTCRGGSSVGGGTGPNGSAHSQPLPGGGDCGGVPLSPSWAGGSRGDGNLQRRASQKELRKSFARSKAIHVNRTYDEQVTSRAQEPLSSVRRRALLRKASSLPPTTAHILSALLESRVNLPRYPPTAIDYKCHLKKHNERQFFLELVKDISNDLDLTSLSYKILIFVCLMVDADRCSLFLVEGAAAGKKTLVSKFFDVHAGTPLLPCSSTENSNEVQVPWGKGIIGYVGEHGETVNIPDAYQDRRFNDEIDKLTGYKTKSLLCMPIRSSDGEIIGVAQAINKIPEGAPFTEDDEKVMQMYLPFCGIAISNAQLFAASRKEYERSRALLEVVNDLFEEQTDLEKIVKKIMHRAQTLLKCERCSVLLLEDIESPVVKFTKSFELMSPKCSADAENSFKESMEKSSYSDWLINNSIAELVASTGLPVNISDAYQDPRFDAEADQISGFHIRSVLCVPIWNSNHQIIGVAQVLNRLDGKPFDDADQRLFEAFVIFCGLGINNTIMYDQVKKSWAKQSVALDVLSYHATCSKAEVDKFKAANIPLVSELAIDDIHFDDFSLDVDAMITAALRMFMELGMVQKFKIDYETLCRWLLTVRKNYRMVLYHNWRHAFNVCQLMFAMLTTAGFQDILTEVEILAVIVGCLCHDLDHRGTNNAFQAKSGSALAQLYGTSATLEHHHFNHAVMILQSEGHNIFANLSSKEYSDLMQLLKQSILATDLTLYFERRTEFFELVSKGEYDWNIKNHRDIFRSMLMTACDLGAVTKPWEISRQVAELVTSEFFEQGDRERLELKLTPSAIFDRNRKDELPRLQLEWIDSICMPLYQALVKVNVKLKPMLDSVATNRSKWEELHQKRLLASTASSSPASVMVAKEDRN

In assay [1], `COc1ccc(CNc2c(CO)cnc3c(NC4CC4)cc(C#N)cc23)cc1Cl` came in with an IC50 of 0.0041 µM.

On to `CN1CC(=O)N2[C@H](c3ccc4c(c3)OCO4)c3[nH]c4ccccc4c3C[C@@H]2C1=O`, for which the IC50 (at Phosphodiesterase 3; on Phosphodiesterase 7; against Phosphodiesterase 1; in assay [2]; in assay [3]; on Phosphodiesterase 8) was greater than 10 µM throughout. Also, the IC50 in assay [4] was greater than 10 µM.

`COc1ccc(CNc2c(CO)cnc3c(N4CCOCC4)cc(C#N)cc23)cc1Cl` registered an IC50 in assay [1] of 0.00063 µM.

Consider `COc1ccc(CNc2c(CO)cnc3c(N(C)C)cc(C#N)cc23)cc1Cl`, for which the concentration for half-maximal inhibition (IC50) at Phosphodiesterase 3 is greater than 10 µM; against Phosphodiesterase 7 it was greater than 10 µM; against Phosphodiesterase 1 it was greater than 10 µM; on Phosphodiesterase 4 it was greater than 10 µM; in assay [1], 0.0004 µM; in [2], greater than 10 µM. Further, the IC50 is 5.1 µM at Phosphodiesterase 6; greater than 10 µM in assay [3]; greater than 10 µM at Phosphodiesterase 8; greater than 10 µM in [4]; greater than 10 µM in [14]. Further, the Ratio IC50 in the assay filed under Homo sapiens [5], in the assay listed under Homo sapiens [6], in the assay listed under Homo sapiens [7], in the assay filed under Homo sapiens [8], in the assay filed under Homo sapiens [9] and in the assay filed under Homo sapiens [10] was greater than 10000 in each case. Further, the Ratio IC50 was greater than 10000 in the assay listed under Homo sapiens [11], 12800 in the assay filed under Homo sapiens [12], greater than 10000 in the assay listed under Homo sapiens [13] and greater than 10000 in the assay filed under Homo sapiens [15].
